Converted amounts (≈) assume the structure as drawn. Read-outs that look alike come from different tables or passages of the source.
Tests used:
[1] = test system: Pasteurella multocida 60A; assay: MIC, broth-dilution microtiter test (Table X); assay type: cell-based; settings: Avian isolate, read-out: MIC
Text: (§1) The MIC's in Table X were obtained using conventional broth-dilution microtiter tests.

Mycoplasma synoviae 40A = assay: MIC, broth-dilution microtiter test (Table X); assay type: cell-based; settings: Mycoplasmopsis synoviae, read-out: MIC
Text: as §1

Streptococcus sp. 19F = assay: MIC, broth-dilution microtiter test (Table X); assay type: cell-based; settings: read-out: MIC
Text: as §1

[2] = test system: Mycoplasma gallisepticum 29C; assay: MIC, broth-dilution microtiter test (Table X); assay type: cell-based; settings: Mycoplasmoides gallisepticum, read-out: MIC
Text: as §1

[3] = test system: Staphylococcus aureus 19C; assay: MIC, broth-dilution microtiter test (Table X); assay type: cell-based
Text: as §1

[4] = test system: Mycoplasma hyopneumoniae S5972; assay: MIC, broth-dilution microtiter test (Table X); assay type: cell-based; settings: Mesomycoplasma hyopneumoniae, read-out: MIC
Text: as §1

[5] = test system: Pasteurella hemolytica 22C; assay: MIC, broth-dilution microtiter test (Table X); assay type: cell-based; settings: read-out: MIC
Text: as §1

Mycoplasma hyorhinis 29E = assay: MIC, broth-dilution microtiter test (Table X); assay type: cell-based; settings: read-out: MIC
Text: as §1

[6] = test system: Pasteurella multocida 17E; assay: MIC, broth-dilution microtiter test (Table X); assay type: cell-based; settings: Bovine isolate, read-out: MIC
Text: as §1

Pasteurella multocida = assay: Pasteurella infection in one-day-old chicks, medicated drinking water (Table XIII); assay type: in vivo; settings: Administered in the available drinking water at 2 g/gal
Procedure, shortened: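 Oral dosing was by medicated drinking water (2 g/gal), offered from 4–20 h pre-infection and through a 3-day observation period. The chicks, one day old, were infected s.c. with 0.1 ml of a 10^-4-diluted, 20-h tryptose broth culture of avian Pasteurella multocida.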

[7] = test system: Staphylococcus aureus V41; assay: MIC, standard agar-dilution assay (Table IX); assay type: cell-based; settings: Staphylococcus aureus V41, Penicillin-resistant strain, read-out: MIC
[8] = test system: Streptococcus Group D X66; assay: MIC, standard agar-dilution assay (Table IX); assay type: cell-based; settings: read-out: MIC
Escherichia coli N10 = assay: MIC, standard agar-dilution assay (Table IX); assay type: cell-based; settings: read-out: MIC
[9] = test system: Streptococcus pyogenes C203; assay: MIC, standard agar-dilution assay (Table IX); assay type: cell-based; settings: read-out: MIC
[10] = test system: Staphylococcus epidermidis 222; assay: MIC, standard agar-dilution assay (Table IX); assay type: cell-based; settings: read-out: MIC
[11] = test system: Haemophilus influenzae 76; assay: MIC, standard agar-dilution assay (Table IX); assay type: cell-based; settings: Haemophilus influenzae 76, Ampicillin-resistant strain, read-out: MIC
Staphyloccus aureus X1.1 = assay: MIC, standard agar-dilution assay (Table IX); assay type: cell-based, Staphylococcus aureus; settings: Staphylococcus aureus, read-out: MIC
Klebsiella X26 = assay: MIC, standard agar-dilution assay (Table IX); assay type: cell-based; settings: read-out: MIC
[12] = test system: Staphylococcus aureus S13E; assay: MIC, standard agar-dilution assay (Table IX); assay type: cell-based; settings: Staphylococcus aureus, S13E
[13] = test system: Haemophilus influenzae C.L.; assay: MIC, standard agar-dilution assay (Table IX); assay type: cell-based; settings: Ampicillin-sensitive strain, read-out: MIC
[14] = test system: Streptococcus Group D 2041; assay: MIC, standard agar-dilution assay (Table IX); assay type: cell-based; settings: GROUPD2041, read-out: MIC
[15] = test system: Staphylococcus aureus X400; assay: MIC, standard agar-dilution assay (Table IX); assay type: cell-based; settings: Staphylococcus aureus X400, Methicillin-resistant strain, read-out: MIC
Escherichia coli EC14 = assay: MIC, standard agar-dilution assay (Table IX); assay type: cell-based; settings: read-out: MIC
[16] = test system: Staphylococcus epidermidis EPI1; assay: MIC, standard agar-dilution assay (Table IX); assay type: cell-based; settings: Staphylococcus epidermidis EPI1; agar-dilution; read-out: MIC
Escherichia coli TEM = assay: MIC, standard agar-dilution assay (Table IX); assay type: cell-based; settings: read-out: MIC
[17] = test system: Streptococcus pyogenes C203; assay: ED50 in mice experimentally infected with S. pyogenes C203 (Table XI); assay type: in vivo; settings: Streptococcus pyogenes, doses given 1 and 4 hours postinfection, read-out: ED50
Procedure, shortened: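 Protective ED50 (mg/kg × 2) was determined as the dose sparing half the animals. Test compound was given twice, at 1 and 4 hours after experimental S. pyogenes C203 infection of mice.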

[18] = test system: Streptococcus pneumoniae Park I; assay: MIC, standard agar-dilution assay (Table IX); assay type: cell-based; settings: Streptococcus pneumoniae Park I; agar-dilution; read-out: MIC

Row | SMILES | MIC [1] [µg/mL] | MIC (Mycoplasma synoviae 40A) [µg/mL] | MIC (Streptococcus sp. 19F) [µg/mL] | MIC [2] [µg/mL] | MIC [3] [µg/mL] | MIC [4] [µg/mL] | MIC [5] [µg/mL] | MIC (Mycoplasma hyorhinis 29E) [µg/mL] | MIC [6] [µg/mL] | MIC [7] [µg/mL] | MIC [8] [µg/mL] | MIC (Escherichia coli N10) [µg/mL] | MIC [9] [µg/mL] | MIC [10] [µg/mL] | MIC [11] [µg/mL] | MIC (Staphyloccus aureus X1.1) [µg/mL] | MIC (Klebsiella X26) [µg/mL] | MIC [12] [µg/mL] | MIC [13] [µg/mL] | MIC [14] [µg/mL] | also measured
1 | CCC1OC(=O)CC(O)C(C)C(OC2OC(C)C(O)C(N(C)C)C2O)C(CCN2CC3CCC(C3)C2)CC(C)C(=O)C=CC(C)=CC1COC1OC(C)C(O)C(OC)C1OC (stereo not shown) [Compound D46] | 12.5 (≈ 14.4 µM) | 1.56 (≈ 1.8 µM) | 1.56 (≈ 1.8 µM) | 0.195 (≈ 0.225 µM) | 3.12 (≈ 3.6 µM) | 3.12 (≈ 3.6 µM) | 6.25 (≈ 7.21 µM) | 25 (≈ 28.8 µM) | 6.25 (≈ 7.21 µM) | – | – | – | – | – | – | – | – | – | – | – | Number of Deaths/Number Treated (Pasteurella multocida): 3/10
2 | CCC1OC(=O)CC(O)C(C)C(OC2OC(C)C(O)C(N(C)C)C2O)C(CCN2C(C)CCCC2C)CC(C)C(=O)C=CC(C)=CC1COC1OC(C)C(O)C(OC)C1OC (stereo not shown) [Compound D41] | 50 (≈ 57.5 µM) | 1.56 (≈ 1.79 µM) | 6.25 (≈ 7.19 µM) | 6.25 (≈ 7.19 µM) | 6.25 (≈ 7.19 µM) | 3.12 (≈ 3.59 µM) | > 50 | 50 (≈ 57.5 µM) | 25 (≈ 28.8 µM) | 8 (≈ 9.2 µM) | 32 (≈ 36.8 µM) | > 128 | 1 (≈ 1.15 µM) | 2 (≈ 2.3 µM) | 64 (≈ 73.6 µM) | 8 (≈ 9.2 µM) | 128 (≈ 147 µM) | 8 (≈ 9.2 µM) | 64 (≈ 73.6 µM) | 32 (≈ 36.8 µM) | MIC [15]: 8 µg/mL (≈ 9.2 µM); MIC (Escherichia coli EC14): > 128 µg/mL; MIC [16]: 8 µg/mL (≈ 9.2 µM); MIC (Escherichia coli TEM): > 128 µg/mL; ED50 ([17]; C203, Oral): > 100 mg/kg; ED50 ([17]; C203, sc, Subcutaneous): 2.04 mg/kg; MIC [18]: 1 µg/mL (≈ 1.15 µM)
3 | CCC1OC(=O)CC(O)C(C)C(OC2OC(C)C(O)C(N(C)C)C2O)C(CCN2CCC3CCCCC3C2)CC(C)C(=O)C=CC(C)=CC1COC1OC(C)C(O)C(OC)C1OC (stereo not shown) [Compound D29, 20-DH-DO-20-(decahydroisoquinolin-2-yl)desmycosin] | 6.25 (≈ 6.98 µM) | < 0.048 | 1.56 (≈ 1.74 µM) | 0.195 (≈ 0.218 µM) | 1.56 (≈ 1.74 µM) | 0.195 (≈ 0.218 µM) | 6.25 (≈ 6.98 µM) | 6.25 (≈ 6.98 µM) | 3.12 (≈ 3.49 µM) | 0.5 (≈ 0.559 µM) | 2 (≈ 2.23 µM) | 64 (≈ 71.5 µM) | 0.5 (≈ 0.559 µM) | 0.125 (≈ 0.14 µM) | 4 (≈ 4.47 µM) | 0.5 (≈ 0.559 µM) | 32 (≈ 35.7 µM) | 0.5 (≈ 0.559 µM) | 4 (≈ 4.47 µM) | 8 (≈ 8.94 µM) | MIC [15]: 0.5 µg/mL (≈ 0.559 µM); MIC (Escherichia coli EC14): 64 µg/mL (≈ 71.5 µM); MIC [16]: 0.5 µg/mL (≈ 0.559 µM); MIC (Escherichia coli TEM): 16 µg/mL (≈ 17.9 µM); ED50 ([17]; C203, Oral): 10.3 mg/kg; ED50 ([17]; C203, sc, Subcutaneous): 1.56 mg/kg; MIC [18]: 0.5 µg/mL (≈ 0.559 µM)

Source: patent US4820695A, “C-20-dihydro-deoxy-(cyclic amino)-derivatives of macrolide antibiotics” (priority 1987, dated 1989)
